Results as given in US20250073249A1, “STEROID COMPOUND, AND PREPARATION METHOD THEREFOR AND USE THEREOF” (SHANGHAI INSTITUTE OF MATERIA MEDICA, CHINESE ACADEMY OF …, priority 2022, published 2025).

What was measured:
Type in all cases: cell-based
[1] = biological target: T1, AR (Homo sapiens, UniProt P10275, T878A); assay: In vitro AR degradation activity test in LNCaP cells (ELISA, OD450); conditions: LNCaP cells, 24 hours
T1 construct: endogenous in cells; host or cells: LNCaP
T1 sequence (P10275 1-920 T878A): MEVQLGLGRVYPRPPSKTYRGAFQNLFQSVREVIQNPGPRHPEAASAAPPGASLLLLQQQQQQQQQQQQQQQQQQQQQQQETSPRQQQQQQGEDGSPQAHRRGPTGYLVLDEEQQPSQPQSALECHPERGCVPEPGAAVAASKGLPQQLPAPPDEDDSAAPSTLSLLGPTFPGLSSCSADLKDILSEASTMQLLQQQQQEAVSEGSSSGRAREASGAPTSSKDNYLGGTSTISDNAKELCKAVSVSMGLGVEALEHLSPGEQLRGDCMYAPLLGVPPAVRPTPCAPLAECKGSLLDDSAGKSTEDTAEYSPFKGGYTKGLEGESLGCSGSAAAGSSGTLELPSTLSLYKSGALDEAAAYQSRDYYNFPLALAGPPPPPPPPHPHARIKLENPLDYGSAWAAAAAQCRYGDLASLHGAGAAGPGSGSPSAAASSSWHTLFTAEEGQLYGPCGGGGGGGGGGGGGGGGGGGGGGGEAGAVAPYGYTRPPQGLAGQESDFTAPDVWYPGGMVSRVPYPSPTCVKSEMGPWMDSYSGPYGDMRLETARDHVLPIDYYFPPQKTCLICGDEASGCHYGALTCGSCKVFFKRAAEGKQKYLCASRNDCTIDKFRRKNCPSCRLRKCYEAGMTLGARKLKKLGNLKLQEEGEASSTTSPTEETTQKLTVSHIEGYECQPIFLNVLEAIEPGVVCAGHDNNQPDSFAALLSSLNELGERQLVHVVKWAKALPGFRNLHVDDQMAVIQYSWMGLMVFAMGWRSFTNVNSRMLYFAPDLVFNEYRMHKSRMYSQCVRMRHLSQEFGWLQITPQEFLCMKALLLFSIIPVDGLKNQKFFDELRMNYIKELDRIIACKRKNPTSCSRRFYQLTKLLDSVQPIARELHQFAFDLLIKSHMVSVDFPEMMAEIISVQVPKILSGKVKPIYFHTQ
Method: The cells were then digested with trypsin and counted using an automated cell counter. The cell suspension was diluted to the desired density in growth medium. The cell suspension was then seeded into 96-well plates at 100 μL per well, and the plates were incubated at 37° C. with 5% CO2 for 24 hours. The compounds were then diluted 200-fold to the final concentration with DMSO or 3-fold to the final concentration with culture medium. 50 μL of compound solution was transferred to the 96-well plate and incubated at 37° C. for 24 hours. After 24 hours of incubation, the cell plate was washed 3 times with DPBS, 100 μL of 1× lysis buffer was added to each well, and placed on ice for 30 minutes. The supernatant was collected. The protein in the cell lysate samples was quantified and then diluted to the required concentration. 100 μL of cell lysate sample was added to the appropriate wells, sealed with tape and pressed firmly on top of the wells, and the plate was incubated at 37° C. for 2 hours. The plate contents were then discarded, and washed 4 times with 1× wash buffer, 200 μL per well each time. 100 μL of reconstituted detection antibody was then added, the plate was sealed with tape and incubated at 37° C. for 1 hour. The aspiration/wash step was then repeated, 100 μL of reconstituted HRP-Linked secondary antibody was added to each well, the plate was sealed with tape and incubated at 37° C. for 30 minutes. The aspiration/wash step was then repeated, 100 μL of substrate solution was added to each well and incubated at 37° C. for 10 minutes, and finally 100 μL of stop solution was added to each well. The plate was gently tapped to ensure thorough mixing, and the OD450 nm was recorded.
Degradation rate (%)=(OD450_max−OD450_sample)/(OD450_max−OD450_min)×100,plotted using GraphPad Prism 5 software, and IC50 is calculated using SPSS software.

[2] = test system: ACE2; assay: ACE2 mRNA expression in A549 cells (qPCR)
[3] = test system: TMPRSS2; assay: TMPRSS2 mRNA expression in A549 cells (qPCR)
[4] = 10 μM, 1 nM DHT, 48 h, Blank = 1

How did the DC50 [1] turn out when C[C@]12CC[C@H](NC(=O)c3ccnnc3)CC1=CCC1C2CC[C@]2(C)C(n3cnc([N+](=O)[O-])c3)=CCC12 (some centres unmarked) [Compound 21] was run?
Its DC50 is 3.31 µM.

What about the “Expression of ACE2 protein, in words” value [2] of the same compound?
The value was “significantly downregulate”.

And the “ACE2 mRNA level” value [2, 4]?
The value was 0.234.

What about the “Expression of TMPRSS2 protein, in words” value [3] of the same compound?
The value was “significantly downregulate”.

What about the “TMPRSS2 mRNA level” value [3, 4] of the same compound?
The value was 0.196.
